# Results from US20250163066A1, “PROTACs of MALT1” (TEGID THERAPEUTICS, INC., priority 2022, published 2025).
# Target: MALT1 (Homo sapiens (Human), UniProt Q9UDY8)
# Test: MALT1 enzymatic activity inhibition (fluorescence, Ac-LRSR-AMC substrate)
# Assay type: biochemical
# Conditions: recombinant MALT1 1.5 ng/μl, Ac-LRSR-AMC 1 μM
# Outline: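 Recombinant human MALT1 (1.5 ng/μl final) preincubated 10 min at rt with compounds in 50 mM HEPES pH 7.2-7.4, 100 mM NaCl, 900 mM sodium citrate, 10 mM DTT; 1 μM Ac-LRSR-AMC then added. AMC fluorescence read at start and after 30 min 37 °C plus 30 min rt; difference gives signal, % inhibition fitted to IC50.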
# Chain of MALT1 (Q9UDY8 whole entry): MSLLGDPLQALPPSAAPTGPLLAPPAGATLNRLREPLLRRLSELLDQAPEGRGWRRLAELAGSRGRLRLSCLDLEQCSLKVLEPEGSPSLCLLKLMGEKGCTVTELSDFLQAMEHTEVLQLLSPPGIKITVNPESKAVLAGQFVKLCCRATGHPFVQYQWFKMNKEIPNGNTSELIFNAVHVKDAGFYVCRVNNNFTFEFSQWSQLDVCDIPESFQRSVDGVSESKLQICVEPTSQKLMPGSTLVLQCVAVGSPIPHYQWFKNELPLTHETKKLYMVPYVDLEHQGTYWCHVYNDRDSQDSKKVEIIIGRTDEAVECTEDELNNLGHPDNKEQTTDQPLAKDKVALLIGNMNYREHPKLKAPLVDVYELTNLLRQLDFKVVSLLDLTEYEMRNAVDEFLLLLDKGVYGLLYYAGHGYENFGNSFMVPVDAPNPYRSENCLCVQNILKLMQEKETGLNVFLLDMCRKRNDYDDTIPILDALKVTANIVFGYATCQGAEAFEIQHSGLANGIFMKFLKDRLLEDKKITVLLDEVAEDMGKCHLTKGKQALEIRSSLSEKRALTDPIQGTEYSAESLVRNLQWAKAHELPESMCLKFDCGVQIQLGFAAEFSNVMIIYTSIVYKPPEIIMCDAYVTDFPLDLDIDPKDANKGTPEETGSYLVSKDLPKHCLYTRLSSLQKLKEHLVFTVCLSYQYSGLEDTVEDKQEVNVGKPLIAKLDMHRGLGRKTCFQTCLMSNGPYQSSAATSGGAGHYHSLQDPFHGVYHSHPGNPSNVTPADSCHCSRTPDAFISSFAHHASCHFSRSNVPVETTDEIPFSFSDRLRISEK
row,Structure (SMILES),EC50 [µM]
1,"CCCCOP(=O)(OCCCC)OCN1C(=O)CCC(N2Cc3cc(N4CCN(C(=O)CCCCCc5nc(-c6ncc(NC(=O)Nc7cnc8ccnn8c7C(C)C)cc6C)no5)CC4)ccc3C2=O)C1=O (centres unmarked) [Compound 148, dibutyl [3-[5-[4-[6-[3-[5-[(7-isopropylpyrazolo[1,5-a]pyrimidin-6-yl)carbamoylamino]-3-methyl-2-pyridyl]-1,2,4-oxadiazol-5-yl]hexanoyl]piperazin-1-yl]-1-oxo-isoindolin-2-yl]-2,6-dioxo-1-piperidyl]methyl phosphate]",0.5 to 1
2,"Cc1cc(NC(=O)Nc2cnc3ccnn3c2C(C)C)cnc1-c1noc(CCCC(=O)N2CCN(c3ccc4c(c3)CN(C3CCC(=O)N(COC(=O)C(C)(C)C)C3=O)C4=O)CC2)n1 (centres unmarked) [Compound 149, [3-[5-[4-[4-[3-[5-[(7-isopropylpyrazolo[1,5-a]pyrimidin-6-yl)carbamoylamino]-3-methyl-2-pyridyl]-1,2,4-oxadiazol-5-yl]butanoyl]piperazin-1-yl]-1-oxo-isoindolin-2-yl]-2,6-dioxo-1-piperidyl]methyl 2,2-dimethylpropanoate]",≤ 0.2
3,"Cc1cc(NC(=O)Nc2cnc3ccnn3c2C(C)(C)C)cnc1-c1noc(CCCCCN2CCN(c3ccc4c(c3)CN(C3CCC(=O)NC3=O)C4=O)CC2)n1 (centres unmarked) [Compound 150, 1-(7-tert-butylpyrazolo[1,5-a]pyrimidin-6-yl)-3-[6-[5-[5-[4-[2-(2,6-dioxo-3-piperidyl)-1-oxo-isoindolin-5-yl]piperazin-1-yl]pentyl]-1,2,4-oxadiazol-3-yl]-5-methyl-3-pyridyl]urea]",1 to 5
4,"O=C1CCC(N2Cc3cc(N4CCN(C(=O)CCCCn5cc(NC(=O)Nc6cnc7ccnn7c6C6CCCC6)c(C(F)(F)F)n5)CC4)ccc3C2=O)C(=O)N1 (centres unmarked) [Compound 151, 1-(7-cyclopentylpyrazolo[1,5-a]pyrimidin-6-yl)-3-[1-[5-[4-[2-(2,6-dioxo-3-piperidyl)-1-oxo-isoindolin-5-yl]piperazin-1-yl]-5-oxo-pentyl]-3-(trifluoromethyl)pyrazol-4-yl]urea]",1 to 5
5,"O=C1CCC(N2Cc3cc(N4CCN(C(=O)CCCCn5cc(NC(=O)Nc6cnc7ccnn7c6C6CCC6)c(C(F)(F)F)n5)CC4)ccc3C2=O)C(=O)N1 (centres unmarked) [Compound 152, 1-(7-cyclobutylpyrazolo[1,5-a]pyrimidin-6-yl)-3-[1-[5-[4-[2-(2,6-dioxo-3-piperidyl)-1-oxo-isoindolin-5-yl]piperazin-1-yl]-5-oxo-pentyl]-3-(trifluoromethyl)pyrazol-4-yl]urea]",1 to 5
6,"Cc1cc(NC(=O)Nc2cnc3ccnn3c2C(C)C)cnc1-c1nnc(CCCCCC(=O)N2CCN(c3ccc4c(c3)CN(C3CCC(=O)NC3=O)C4=O)CC2)s1 (centres unmarked) [Compound 153, 1-[6-[5-[6-[4-[2-(2,6-dioxo-3-piperidyl)-1-oxo-isoindolin-5-yl]piperazin-1-yl]-6-oxo-hexyl]-1,3,4-thiadiazol-2-yl]-5-methyl-3-pyridyl]-3-(7-isopropylpyrazolo[1,5-a]pyrimidin-6-yl)urea]",0.2 to 0.5
7,"Cc1cc(NC(=O)Nc2cnc3ccnn3c2C(C)C)cnc1-c1nnc(CCCCC(=O)N2CCN(c3ccc4c(c3)CN(C3CCC(=O)NC3=O)C4=O)CC2)s1 (centres unmarked) [Compound 154, 1-[6-[5-[5-[4-[2-(2,6-dioxo-3-piperidyl)-1-oxo-isoindolin-5-yl]piperazin-1-yl]-5-oxo-pentyl]-1,3,4-thiadiazol-2-yl]-5-methyl-3-pyridyl]-3-(7-isopropylpyrazolo[1,5-a]pyrimidin-6-yl)urea]",0.2 to 0.5
8,"O=C1CCC(N2Cc3cc(N4CCN(C(=O)CCCCn5cc(NC(=O)Nc6cnc7ccnn7c6C6CCCO6)c(C(F)(F)F)n5)CC4)ccc3C2=O)C(=O)N1 (centres unmarked) [Compound 155, 1-[1-[5-[4-[2-(2,6-dioxo-3-piperidyl)-1-oxo-isoindolin-5-yl]piperazin-1-yl]-5-oxo-pentyl]-3-(trifluoromethyl)pyrazol-4-yl]-3-(7-tetrahydrofuran-2-ylpyrazolo[1,5-a]pyrimidin-6-yl)urea]",> 5
